pEC50, pIC50, pKi: −log10 of the molar value. Where a SMILES comes first, the peptide text is derived from it. [ ]: non-standard residue; d: D form. The star is where a group is joined. Phe(4-guanidino) = N=C(N)Nc1ccc(C[C@H](N)C(=O)O)cc1; Phe(4-CH2NH2) = NCc1ccc(C[C@H](N)C(=O)O)cc1; Phe(4-NH2) = Nc1ccc(C[C@H](N)C(=O)O)cc1; Bz = O=C(c1ccccc1)*
Legend:
West Nile virus [1] = experiment: Inhibition of West Nile virus His-tagged NS2B-NS3 protease expressed in Escherichia coli BL21(DE3) at 50 uM using Abz-Gly-Leu-Lys-Arg-Gly-Gly-3-(NO2)Tyr as substrate preincubated for 15 mins followed by substrate addition measured for 15 mins by fluorescence assay relative to control
dengue virus type 2 [2] = experiment: Inhibition of Dengue virus serotype 2 His-tagged NS2B-NS3 protease expressed in Escherichia coli BL21(DE3) at 50 uM using Abz-Nle-Lys-Arg-Arg-Ser-3-(NO2)Tyr as substrate preincubated for 15 mins followed by substrate addition measured for 15 mins by fluorescence assay relative to control
[3] = Inhibition of Zika virus N-terminal His-tagged NS2B-NS3 protease expressed in Escherichia coli BL21 GOLD(DE3) using Bz-Nle-Lys-Lys-Arg-AMC as substrate preincubated for 10 mins followed by substrate addition by fluorophotometric method
[4] = Inhibition of West Nile virus His-tagged NS2B-NS3 protease expressed in Escherichia coli BL21(DE3) using Abz-Gly-Leu-Lys-Arg-Gly-Gly-3-(NO2)Tyr as substrate preincubated for 15 mins followed by substrate addition measured for 15 mins by fluorescence assay
West Nile virus [5] = experiment: Antiviral activity against West Nile virus infected in African green monkey Vero E6 cells assessed as virus yield reduction at 50 uM after 3 days by crystal violet staining based plaque assay relative to control; type: functional; set-up: scale not given: the % may be the effect or the level left
[6] = Cytotoxicity against human HuH7 cells assessed as reduction in cell viability after 48 hrs by CellTiter-Glo assay; type: toxicity, cell-based, Huh-7
[7] = Inhibition of Dengue virus serotype 2 His-tagged NS2B-NS3 protease using Abz-Nle-Lys-Arg-Arg-Ser-3-(NO2)Tyr as substrate preincubated for 15 mins followed by substrate addition measured for 15 mins by fluorescence assay; set-up: species or system dengue virus type 2
dengue virus type 2 [8] = experiment: Antiviral activity against Dengue virus serotype 2 infected in African green monkey Vero E6 cells assessed as virus yield reduction at 50 uM after 7 days by crystal violet staining based plaque assay relative to control; type: functional; set-up: scale not given: the % may be the effect or the level left
West Nile virus [9] = experiment: Antiviral activity against West Nile virus infected in African green monkey Vero E6 cells assessed as virus yield reduction after 3 days by crystal violet staining based plaque assay; type: functional, cell-based; conditions: 72 h
dengue virus type 2 [10] = experiment: Antiviral activity against Dengue virus serotype 2 infected in African green monkey Vero E6 cells assessed as virus yield reduction at 3.1 uM after 7 days by crystal violet staining based plaque assay relative to control; type: functional; set-up: scale not given: the % may be the effect or the level left
dengue virus type 2 [11] = experiment: Antiviral activity against Dengue virus serotype 2 infected in African green monkey Vero E6 cells assessed as virus yield reduction after 7 days by crystal violet staining based plaque assay; type: functional, cell-based; conditions: 168 h

SMILES	inhibition (West Nile virus [1]) [%]	inhibition (dengue virus type 2 [2]) [%]	pIC50 [3]	pIC50 [4]	pKi [4]	Activity (West Nile virus [5]) [%]	CC50 at 48 h [6] [µM]	pIC50 [7]	pKi [7]	further results
NCCC[C@H](NC(=O)c1ccccc1)C(N)=O	18	2								
N=C(N)NCCC[C@H](NC(=O)[C@@H](NC(=O)c1ccccc1)c1cccc(NC(=N)N)c1)B(O)O			5.92	6.85	6.92	47	> 100	6.59	6.66	Activity (dengue virus type 2 [8]): 24%
N=C(N)NCCC[C@H](NC(=O)[C@H](Cc1ccc(N)cc1)NC(=O)c1ccccc1)C(N)=O (Bz-[Phe(4-NH2)]-Arg-NH2)	13	5.2								
N=C(N)NCCC[C@H](NC(=O)[C@H](Cc1ccc(NC(=N)N)cc1)NC(=O)c1ccccc1)C(N)=O (Bz-[Phe(4-guanidino)]-Arg-NH2)	34							4.06	4.54	
CC(C)(C)c1ccc(C(=O)N[C@@H](Cc2ccc(NC(=N)N)cc2)C(=O)N[C@@H](CCCNC(=N)N)C(N)=O)cc1	34							3.84		
N=C(N)NCCC[C@H](NC(=O)[C@H](Cc1ccc(N)cc1)NC(=O)c1ccccc1)B(O)O			< 4.40	5.13	5.22		10.1	5.13	5.38	pEC50 (West Nile virus [9]): 5.82; Activity (dengue virus type 2 [10]): 44%
N=C(N)NCCC[C@H](NC(=O)c1ccccc1)C(N)=O	9.6	9.7								
N=C(N)NCCC[C@H](NC(=O)[C@@H](NC(=O)c1ccccc1)c1cccc(NC(=N)N)c1)C(N)=O	22	9.8								
N=C(N)NCCC[C@H](NC(=O)[C@H](Cc1ccc(CN)cc1)NC(=O)c1ccccc1)B(O)O			6.60	6.96	7.09		> 100	7.18	7.29	pKi [3]: 7.40; pEC50 (West Nile virus [9]): 4.42; pEC50 (dengue virus type 2 [11]): 4.52
NCCC[C@H](NC(=O)c1ccccc1)B(O)O	30	8.3	< 4.30			33	> 100			Activity (dengue virus type 2 [8]): 7.5%
CC(C)(C)c1ccc(C(=O)N[C@@H](Cc2ccc(NC(=N)N)cc2)C(=O)N[C@@H](CCCNC(=N)N)B(O)O)cc1			5.68	6.68	6.80	30	> 100	6.96	7.11	pEC50 (dengue virus type 2 [11]): 4.72
N=C(N)NCCC[C@H](NC(=O)[C@H](Cc1cccc(NC(=N)N)c1)NC(=O)c1ccccc1)B(O)O			5.72	6.51	6.52	38	≥ 100	6.96	7.04	pEC50 (dengue virus type 2 [11]): 4.32
N=C(N)NCCC[C@H](NC(=O)[C@H](Cc1ccc(CN)cc1)NC(=O)c1ccccc1)C(N)=O (Bz-[Phe(4-CH2NH2)]-Arg-NH2)	20	6.6								
N=C(N)NCCC[C@H](NC(=O)[C@H](Cc1cccc(NC(=N)N)c1)NC(=O)c1ccccc1)C(N)=O	33							3.68		
N=C(N)NCCC[C@H](NC(=O)c1ccccc1)B(O)O	18	51.9	< 4.30			19	> 100			Activity (dengue virus type 2 [8]): 12%
N=C(N)NCCC[C@H](NC(=O)[C@H](Cc1ccc(NC(=N)N)cc1)NC(=O)c1ccccc1)B(O)O			6.08	7.15	7.19		> 100	7.44	7.57	pEC50 (West Nile virus [9]): 4.60; pEC50 (dengue virus type 2 [11]): 4.74
